Results from US20070197586A1, “8-Hydroxy-5-[(-Hydroxy-2-[[ (1R)-2-(4-Methoxyphenyl)-1-Methylethyl] Amino][Ethyl]-2(1H)-Quinolinone Monohydrochloride In Crystalline Form And The Process For Its Preparation” (Chiesi Farmaceutici S.p.A., priority 2004, published 2007).

Test: Crystalline degree by in-house DSC method (heat of fusion vs 100% crystalline reference standard)
Type: physicochemical
Conditions: samples as such and after grinding or micronization; DSC scan rate 130° C./min; maintained after grinding and micronization
Description: The crystalline degree of the compound has been determined according to a differential scanning calorimetry (DSC) method developed in-house based on the measurement of the heat of fusion.
Said method uses a scan rate of 130° C./min to evaluate the percentage of crystalline compound in a sample by determining the ratio between the ΔH (heat of fusion) of the sample with respect to the ΔH of a 100% crystalline reference standard, determined in the same range of temperature and in the same experimental conditions. The 100% crystalline reference standard was prepared by suspending the compound in ethanol, then filtering to eliminate the residual amorphous compound dissolved in ethanol, and drying.
The method was applied to samples of the compound of the Example as such, and after grinding or micronization.

COc1ccc(C[C@@H](C)NC[C@H](O)c2ccc(O)c3[nH]c(=O)ccc23)cc1.Cl [compound of the Example, 8-hydroxy-5-[(1R)-1-hydroxy-2-[[(1R)-2-(4-methoxyphenyl)-1-methylethyl]amino]ethyl]-2(1H)-quinolinone monohydrochloride]
cristallinity degree: higher than 90%
